The text below walks through data of patent EP0417987B1, “Fabric softening” (UNILEVER PLC, priority 1989, dated 1991).

Series [1] can be described thus: Stability of the undiluted liquid rinse conditioner. Conditions: rinse conditioner 5wt% Armeen M2HT, 1wt% tallow 35EO.
Method: (§1) The performance and stability of several amine containing liquid fabric softening compositions was tested as follows:
(§2) A wash load of 1.25 kg of terry towelling and 1.25 kg of cotton sheeting fabrics was washed at 40°C in a Miele 756 automatic with 100g of Persil Automatic (UK).
The nature of series [2]: pH of the rinse water after adding rinse conditioner to the last rinse cycle of a machine wash. Format: physicochemical. To be noted: 90 mls rinse conditioner (about 200 ppm amine) in last rinse cycle.
Method: as §1, §2
Series [3] can be described thus: pH of the undiluted liquid rinse conditioner. Conditions: rinse conditioner 5wt% Armeen M2HT, 1wt% tallow 35EO.
Method: as §1, §2
[4] abbreviates: pH adjuster conc 0.3 M in product.
Where [5] appears, read: pH adjuster conc 0.4 M in product.
Where [6] appears, read: pH adjuster conc 0.6 M in product.
[7] abbreviates: pH adjuster conc 0.5 M in product.
The mark [8] stands for this setting: pH adjuster conc 0.7 M in product.
Setting [9] is: pH adjuster conc 0.9 M in product.
[10] abbreviates: pH adjuster conc 1.0 M in product.

Where a name gives a salt, the structure may show the parent alone.

For `O=C(O)C(=O)O` [Oxalic, Oxalic acid], in series [1] (pH adjuster conc 0.6 M), the undiluted product stability result was “unstable”. Further, the “rinse pH” value in series [2] (setting [4]) was found to be 6.0; in series [2] (setting [5]) it was 4.8; in series [2] (setting [6]), 3.3. The “undiluted product pH” value in series [3] (pH adjuster conc 0.6 M) was 0.8.

`O=C(O)CC(=O)O` [Malonic, malonic acid]: in series [1] (pH adjuster conc 0.7 M), the undiluted product stability result is reported as “stable”. The “rinse pH” value stood at 5.4 in series [2] (setting [7]), 4.7 in series [2] (setting [8]) and 3.4 in series [2] (setting [9]). Besides, the “undiluted product pH” value in series [3] (pH adjuster conc 0.7 M) turned out to be 1.5.

As for `O=P(O)(O)O` [o-H₃PO₄, orthophosphoric acid], the “rinse pH” value turned out to be 5.6 in series [2] (setting [6]), 4.6 in series [2] (setting [9]) and 3.8 in series [2] (pH adjuster conc 1.2 M in product). Besides, the “undiluted product pH” value is given as 1.3 in series [3] (pH adjuster conc 0.6 M) and 0.8 in series [3] (pH adjuster conc 1.2 M).

As to `O=C(O)CC(O)(CC(=O)O)C(=O)O` [Citric, citric acid], the figures for the “rinse pH” value in series [2] (setting [4]), in series [2] (setting [7]) and in series [2] (setting [9]) were 5.6, 4.5 and 3.8, respectively.

Turning to `Cl` [HCl], the results for the “rinse pH” value in series [2] (setting [8]), in series [2] (setting [9]) and in series [2] (setting [10]) were 5.2, 4.4 and 3.7, respectively. The “undiluted product pH” value in series [3] (pH adjuster conc 0.7 M) amounted to 0.2; in series [3] (pH adjuster conc 1.0 M), 0.1.

On to `O=C(O)CCC(=O)O` [Succinic, succinic acid], for which the undiluted product stability entry in series [1] (pH adjuster conc 1.0 M) and in series [1] (pH adjuster conc 1.5 M) was “stable” in each case. The “rinse pH” value in series [2] (setting [10]) is 4.5; in series [2] (pH adjuster conc 1.5 M in product), 4.2. For the same molecule, the “undiluted product pH” value in series [3] (pH adjuster conc 1.0 M) worked out at 2.3; in series [3] (pH adjuster conc 1.5 M) it was 2.2.

Turning to `O=C(O)C(O)C(O)C(=O)O` (centres unmarked) [Tartaric, tartaric acid], the “rinse pH” value in series [2] (setting [5]) stood at 5.7; in series [2] (setting [7]), 4.5; in series [2] (pH adjuster conc 0.8 M in product) it was 3.9.
